Reference: patent US10590128B2, “6,7,8,9-tetrahydro-5H-pyrido[2,3-d]azepine dopamine D3 ligands” (Pfizer Inc., priority 2016, dated 2020)

What was measured:
[1] = target: human dopamine D2 receptor (hD2R) (Homo sapiens, UniProt P14416); experiment: Human D2 receptor binding assay ([^3H]-Spiperone); settings: CHO cells expressing hD2R, geometric mean of 2-5 determinations unless marked b (single determination)
Method: (§1) Human D2 Receptor and Human D3 Receptor Binding Assays:
(§2) These determined ligand and tissue concentrations were utilized in time course studies to determine linearity and equilibrium conditions for binding. […] The hD2R assay buffer contains 50 mM Tris (pH 7.4 @ 37° C.), 100 mM NaCl and 1 mM MgCl2. The hD3R assay buffer consists of 50 mM Tris (pH 7.4 at 37° C.), 120 mM NaCl, 5 mM MgCl2, 5 mM KCl and 2 mM CaCl2. Competitive binding experiments were initiated by the addition of 200 μL of the respective cell homogenate to 96-well plates containing […] test drugs (10 concentrations using ½ log dilutions) and 50 μL of ^3H-radioligand for a final volume of 250 μL. Non-specific binding was determined by radioligand binding in the presence of a saturating concentration of Haldol (10 μM). After the 20 minute incubation at 37° C., assay samples were rapidly filtered through Unifilter-96 GF/B PEI-coated filter plates and rinsed with ice-cold 50 mM Tris buffer (pH 7.4 at 4° C.). […] The IC50 value (concentration at which 50% inhibition of specific binding occurs) was calculated by linear regression of the concentration-response data in ActivityBase. Ki values were then calculated according to the Cheng-Prusoff equation:
(§3) [formula] where [L]=concentration of free radioligand and Kd=dissociation constant of radioligand for D3 receptor or D2 receptor.

[2] = target: human dopamine D3 receptor (hD3R) (Homo sapiens, UniProt P35462); experiment: Human D3 receptor binding assay ([^3H]-7-OH-DPAT); settings: CHO cells expressing hD3R, geometric mean of 2-5 determinations unless marked b (single determination), read-out: hD3 in CHO cells Ki
Chain of human dopamine D3 receptor (hD3R) (P35462 whole entry): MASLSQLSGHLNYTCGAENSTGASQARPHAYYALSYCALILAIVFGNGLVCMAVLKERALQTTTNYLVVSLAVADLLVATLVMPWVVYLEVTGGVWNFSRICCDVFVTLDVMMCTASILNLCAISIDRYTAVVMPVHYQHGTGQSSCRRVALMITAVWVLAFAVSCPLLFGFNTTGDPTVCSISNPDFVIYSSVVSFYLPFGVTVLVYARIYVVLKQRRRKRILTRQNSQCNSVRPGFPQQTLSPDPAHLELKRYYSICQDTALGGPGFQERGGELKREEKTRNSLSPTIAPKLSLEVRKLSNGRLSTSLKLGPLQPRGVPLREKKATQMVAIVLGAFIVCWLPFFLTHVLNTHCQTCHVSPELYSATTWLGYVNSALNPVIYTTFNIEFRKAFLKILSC
Method: as §1, §2, §3

Chain of human dopamine D2 receptor (hD2R) (P14416 whole entry): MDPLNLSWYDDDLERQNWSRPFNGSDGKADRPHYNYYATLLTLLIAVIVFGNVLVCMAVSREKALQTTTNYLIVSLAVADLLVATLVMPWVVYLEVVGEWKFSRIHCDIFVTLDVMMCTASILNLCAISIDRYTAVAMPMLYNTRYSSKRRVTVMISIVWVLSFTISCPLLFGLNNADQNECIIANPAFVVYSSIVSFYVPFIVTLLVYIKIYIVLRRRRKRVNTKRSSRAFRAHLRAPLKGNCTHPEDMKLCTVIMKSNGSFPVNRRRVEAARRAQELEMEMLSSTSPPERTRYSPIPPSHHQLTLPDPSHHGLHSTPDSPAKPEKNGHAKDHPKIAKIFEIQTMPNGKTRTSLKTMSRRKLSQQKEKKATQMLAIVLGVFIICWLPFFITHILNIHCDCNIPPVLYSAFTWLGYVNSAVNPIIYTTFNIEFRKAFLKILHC

SMILES | Ki [1] [nM] | Ki [2] [nM]
CCCN1CCc2cc(NS(=O)(=O)c3ccc(C(C)C)cc3)c(OC(F)F)nc2CC1 [Example 12, N-[2-(Difluoromethoxy)-7-propyl-6,7,8,9-tetrahydro-5H-pyrido[2,3-d]azepin-3-yl]-4-(propan-2-yl)benzenesulfonamide] | 260 | 281
CCN1CCc2nc(OC)c(NS(=O)(=O)c3ccc(C)cc3)cc2C(C)C1 (stereo not drawn) [Example 13, N-(7-ethyl-2-methoxy-5-methyl-6,7,8,9-tetrahydro-5H-pyrido[2,3-d]azepin-3-yl)-4-methylbenzenesulfonamide] | 923 | 10.8
COc1nc2c(cc1NS(=O)(=O)c1ccc(C3CCCC3)nc1)CCN(C)CC2 [Example 16, 6-cyclopentyl-N-(2-methoxy-7-methyl-6,7,8,9-tetrahydro-5H-pyrido[2,3-d]azepin-3-yl)pyridine-3-sulfonamide] | 122 | 2.41
COc1nc2c(cc1NS(=O)(=O)c1ccc(OC3CCC3)nc1)CCN(C)CC2 [Example 17, 6-(cyclobutyloxy)-N-(2-methoxy-7-methyl-6,7,8,9-tetrahydro-5H-pyrido[2,3-d]azepin-3-yl)pyridine-3-sulfonamide] | 90.2 | 1.95
COc1nc2c(cc1NS(=O)(=O)c1cnc(OC3CCCC3)nc1)CCN(C)CC2 [Example 18, 2-(cyclopentyloxy)-N-(2-methoxy-7-methyl-6,7,8,9-tetrahydro-5H-pyrido[2,3-d]azepin-3-yl)pyrimidine-5-sulfonamide] | 142 | 3.58
COc1nc2c(cc1NS(=O)(=O)c1ccc(C3(F)CCCCC3)nc1)CCN(C)CC2 [Example 19, 6-(1-fluorocyclohexyl)-N-(2-methoxy-7-methyl-6,7,8,9-tetrahydro-5H-pyrido[2,3-d]azepin-3-yl)pyridine-3-sulfonamide] | 91.2 | 2.76
CCN1CCc2cc(NS(=O)(=O)c3ccc([C@H]4C[C@H](OCCF)C4)cc3)c(OC)nc2CC1 [Example 20, N-(7-ethyl-2-methoxy-6,7,8,9-tetrahydro-5H-pyrido[2,3-d]azepin-3-yl)-4-[trans-3-(2-fluoroethoxy)cyclobutyl]benzenesulfonamide] | 116 | 1.74
CCN1CCc2cc(NS(=O)(=O)c3ccc([C@]4(O)C[C@@H](OC)C4)nc3)c(OC)nc2CC1 [Example 23, N-(7-ethyl-2-methoxy-6,7,8,9-tetrahydro-5H-pyrido[2,3-d]azepin-3-yl)-6-(cis-1-hydroxy-3-methoxycyclobutyl)pyridine-3-sulfonamide] | > 4600 | > 459

The next compounds have a lower Ki [1] than those just listed; values first:

Ki [1] [nM] | Ki [2] [nM] | SMILES
36.6 | 3.81 | CCOc1ccc(S(=O)(=O)Nc2cc3c(nc2OC(C)C)CCN(CC)CC3)cc1 [Example 14, 4-Ethoxy-N-[7-ethyl-2-(propan-2-yloxy)-6,7,8,9-tetrahydro-5H-pyrido[2,3-d]azepin-3-yl]benzenesulfonamide]
30.3 | 2.64 | CCO[C@H]1C[C@H](c2ccc(S(=O)(=O)Nc3cc4c(nc3OC)CCN(C)CC4)cc2)C1 [Example 22, 4-(trans-3-ethoxycyclobutyl)-N-(2-methoxy-7-methyl-6,7,8,9-tetrahydro-5H-pyrido[2,3-d]azepin-3-yl)benzenesulfonamide]
25.5 | 0.967 | CCO[C@H]1C[C@@H](c2ccc(S(=O)(=O)Nc3cc4c(nc3OC)CCN(C)CC4)cc2)C1 [Example 21, 4-(cis-3-ethoxycyclobutyl)-N-(2-methoxy-7-methyl-6,7,8,9-tetrahydro-5H-pyrido[2,3-d]azepin-3-yl)benzenesulfonamide]
13.3 | 0.714 | COc1nc2c(cc1NS(=O)(=O)c1ccc(OC3CCCC3)nc1)CCN(C)CC2 [Example 15, 6-(cyclopentyloxy)-N-(2-methoxy-7-methyl-6,7,8,9-tetrahydro-5H-pyrido[2,3-d]azepin-3-yl)pyridine-3-sulfonamide]
